We go through six molecules from ChEMBL document CHEMBL2396621, “Design, synthesis and biological evaluation of 2-mercapto-3-phenethylquinazoline bearing anilide fragments as potential antitumor agents: molecular docking study” (2013).

The structures appear in SMILES notation. A value given as a limit tells only on which side of the number the result lay.

Common to all, as to type: functional
One assay deals with MOLT-4. The assay can be described thus: Cytotoxicity against human MOLT4 cells assessed as growth inhibition at 10 uM after 48 hrs by coulter counter analysis. Conditions: MOLT-4, 48 h, read-out: GI.
A further assay relates to 786-0. Kind of assay: Cytotoxicity against human 786-0 cells assessed as growth inhibition at 10 uM after 48 hrs by coulter counter analysis. Conditions: 786-0, 48 h, read-out: GI.
The subject of another assay is RXF 393. Kind of assay: Cytotoxicity against human RXF393 cells assessed as growth inhibition at 10 uM after 48 hrs by coulter counter analysis. Conditions: RXF 393, 48 h, read-out: GI.
Another assay concerns Malme-3M. The assay can be described thus: Cytotoxicity against human MALME-3M cells assessed as growth inhibition at 10 uM after 48 hrs by coulter counter analysis. Conditions: read-out: GI.
The subject of a further assay is HL-60(TB). The assay can be described thus: Cytotoxicity against human HL-60(TB) cells assessed as growth inhibition at 10 uM after 48 hrs by coulter counter analysis. Conditions: HL-60, 48 h, read-out: GI.
Another assay relates to CAKI-1. Kind of assay: Cytotoxicity against human Caki1 cells assessed as growth inhibition at 10 uM after 48 hrs by coulter counter analysis. Conditions: CAKI-1, 48 h, read-out: GI.
The next assay has as its system Hs-578T. The assay can be described thus: Cytotoxicity against human Hs578T cells assessed as growth inhibition at 10 uM after 48 hrs by coulter counter analysis. Conditions: read-out: GI.
The subject of the next assay is MCF7. The assay can be described thus: Cytotoxicity against human MCF7 cells assessed as growth inhibition at 10 uM after 48 hrs by coulter counter analysis. Conditions: MCF7, 48 h, read-out: GI.
The test system of a further assay is SK-MEL-28. The assay can be described thus: Cytotoxicity against human SK-MEL-28 cells assessed as growth inhibition at 10 uM after 48 hrs by coulter counter analysis. Conditions: SK-MEL-28, 48 h, read-out: GI.
A further assay relates to OVCAR-8. The assay can be described thus: Cytotoxicity against human OVCAR8 cells assessed as growth inhibition at 10 uM after 48 hrs by coulter counter analysis. Conditions: OVCAR-8, 48 h, read-out: GI.
The subject of another assay is M14. Kind of assay: Cytotoxicity against human M14 cells assessed as growth inhibition at 10 uM after 48 hrs by coulter counter analysis. Conditions: M14, 48 h, read-out: GI.
In the next assay the test system is HCT-116. The assay can be described thus: Cytotoxicity against human HCT116 cells assessed as growth inhibition at 10 uM after 48 hrs by coulter counter analysis. Conditions: HCT-116, 48 h, read-out: GI.
A further assay deals with MDA-MB-231. The assay can be described thus: Cytotoxicity against human MDA-MB-231 cells assessed as growth inhibition at 10 uM after 48 hrs by coulter counter analysis. Conditions: MDA-MB-231, 48 h, read-out: GI.
The subject of another assay is OVCAR-5. The assay can be described thus: Cytotoxicity against human OVCAR5 cells assessed as growth inhibition at 10 uM after 48 hrs by coulter counter analysis. Conditions: OVCAR-5, 48 h, read-out: GI.
The test system of another assay is UACC-62. Kind of assay: Cytotoxicity against human UACC62 cells assessed as growth inhibition at 10 uM after 48 hrs by coulter counter analysis. Conditions: UACC-62, 48 h, read-out: GI.
The test system of another assay is U-251. The assay can be described thus: Cytotoxicity against human U251 cells assessed as growth inhibition at 10 uM after 48 hrs by coulter counter analysis. Conditions: U-251, 48 h, read-out: GI.
Assay [1] can be described thus: Cytotoxicity against human EKVX cells assessed as growth inhibition at 10 uM after 48 hrs by coulter counter analysis. Conditions: read-out: GI.
Assay [2] can be described thus: Cytotoxicity against human melanoma cells after 48 hrs by coulter counter analysis. Conditions: Melanoma cell.
A short description of assay [3]: Cytotoxicity against human non-small cell lung cancer cells after 48 hrs by coulter counter analysis. Conditions: Cancer cell lines.
Assay [4] in a line: Cytotoxicity against human breast cancer cells after 48 hrs by coulter counter analysis. Conditions: Cancer cell lines.
Assay [5] in a line: Cytotoxicity against human leukemia cells after 48 hrs by coulter counter analysis. Conditions: Leukemia cell.
The nature of assay [6]: Cytotoxicity against human prostate cancer cells after 48 hrs by coulter counter analysis. Conditions: Cancer cell lines.
Assay [7] can be described thus: Cytotoxicity against human renal cancer cells after 48 hrs by coulter counter analysis. Conditions: Cancer cell lines.
A short description of assay [8]: Cytotoxicity against human CNS cancer cells after 48 hrs by coulter counter analysis. Conditions: Cancer cell lines.
Assay [9] in a line: Cytotoxicity against human ovarian cancer cells after 48 hrs by coulter counter analysis. Conditions: Cancer cell lines.
Assay [10] is described as follows: Cytotoxicity against human colon cancer cells after 48 hrs by coulter counter analysis. Conditions: Cancer cell lines.
The mark [11] stands for this setting: read-out: LC50 (the source's name).

As for `O=C(CSc1nc2ccccc2c(=O)n1CCc1ccccc1)Nc1ccccc1`, the inhibition of growth at 10 µM in the assay on MOLT-4 is below 10%; in the assay with 786-0 it was below 10%; with RXF 393, below 10%; in the assay with Malme-3M, below 10%; with HL-60(TB), 17%; in the assay with CAKI-1 it was below 10%. The inhibition of growth at 10 µM with Hs-578T was below 10%; in the assay with MCF7 it was 19%; in the assay with SK-MEL-28, below 10%; in the assay with OVCAR-8, below 10%; in the assay on M14, 10%; in the assay on HCT-116, 15%. Moreover, the inhibition of growth at 10 µM in the assay with MDA-MB-231 was 35%; in the assay with OVCAR-5 it was below 10%; with UACC-62 it was 16%; in the assay on U-251 it was below 10%; in assay [1], 16%.
`O=C(CSc1nc2ccccc2c(=O)n1CCc1ccccc1)Nc1ccc(F)cc1`: the inhibition of growth at 10 µM in the assay with MOLT-4 is 26%; with 786-0, below 10%; in the assay with RXF 393, 13%; in the assay on Malme-3M, 11%; in the assay with HL-60(TB), 25%; in the assay on CAKI-1, 22%. Besides, the inhibition of growth at 10 µM was 16% in the assay with Hs-578T; 18% with MCF7; below 10% with SK-MEL-28; below 10% with OVCAR-8; 18% in the assay with M14; 19% in the assay with HCT-116. The inhibition of growth at 10 µM was 22% with MDA-MB-231; below 10% in the assay with OVCAR-5; 25% with UACC-62; 17% in the assay with U-251; 24% in [1].
`Cc1ccc(NC(=O)CSc2nc3ccccc3c(=O)n2CCc2ccccc2)cc1`: the inhibition of growth at 10 µM in the assay with MOLT-4 is below 10%; with 786-0, below 10%; in the assay on RXF 393, 10%; with Malme-3M, 17%; with HL-60(TB), below 10%; in the assay on CAKI-1 it was 13%. For the same molecule, the inhibition of growth at 10 µM in the assay on Hs-578T was 41%; in the assay on MCF7, 23%; with SK-MEL-28, 22%; with OVCAR-8, 27%; with M14, below 10%; in the assay on HCT-116, 13%. The inhibition of growth at 10 µM is 23% in the assay with MDA-MB-231; below 10% with OVCAR-5; 20% in the assay on UACC-62; 11% with U-251; 29% in [1].
A word on the GI50: it is the concentration at which growth is held to half of that of the control. Read a low GI50 as more potent growth inhibition. As usually defined, the TGI is the concentration giving total growth inhibition. A lower TGI goes with greater sensitivity of the cells. In the case of `COc1cc(NC(=O)CSc2nc3ccccc3c(=O)n2CCc2ccccc2)cc(OC)c1OC`, the GI50 is 3.3 µM in assay [2]; 2.04 µM in assay [3]; 2.77 µM in assay [4]; above 100 µM in assay [5]; 4.98 µM in assay [6]; 1.77 µM in [7]. The GI50 in assay [8] was 2.73 µM; in assay [9] it was 2.55 µM; in assay [10], 2.02 µM. Further, the TGI in assay [2] is 76.6 µM; in [3], 43.1 µM; in assay [4] it was 44.1 µM; in [5], above 100 µM; in assay [6], above 100 µM; in [7] it was 3.63 µM. The TGI in [8] is 13.5 µM; in assay [9] it was 52 µM; in [10], above 100 µM. Moreover, the CC50 in assay [3] (setting [11]) is above 100 µM; in [6] (setting [11]), above 100 µM; in assay [8] (setting [11]) it was 75 µM; in assay [10] (setting [11]), above 100 µM. In addition, the inhibition of growth at 10 µM is above 100% in the assay on 786-0; 55% in the assay with RXF 393; 59% with Malme-3M; 64% with Hs-578T; 49% in the assay on MCF7; 63% in the assay on SK-MEL-28. For the same molecule, the inhibition of growth at 10 µM is 70% in the assay with OVCAR-8; 68% with M14; above 100% in the assay with HCT-116; above 100% in the assay on MDA-MB-231; 35% with OVCAR-5; 25% with UACC-62. Besides, the inhibition of growth at 10 µM was above 100% with U-251 and 35% in assay [1].
With `COc1cc(NC(=O)CCSc2nc3ccccc3c(=O)n2CCc2ccccc2)cc(OC)c1OC`, the inhibition of growth at 10 µM was 40% with MOLT-4; 29% in the assay with 786-0; 12% in the assay on RXF 393; 77% in the assay with Malme-3M; 27% in the assay with HL-60(TB); 74% in the assay with CAKI-1. The inhibition of growth at 10 µM in the assay on Hs-578T was determined as 67%; in the assay with MCF7 it was 33%; in the assay on SK-MEL-28, 42%; in the assay on OVCAR-8, 28%; with M14, 40%; with HCT-116 it was 40%. Further, the inhibition of growth at 10 µM in the assay on MDA-MB-231 was 66%; in the assay with OVCAR-5 it was below 10%; in the assay with UACC-62, 30%; in the assay with U-251 it was 25%; in assay [1], 34%.
For the molecule `O=C(CSc1nc2ccccc2c(=O)n1CCc1ccccc1)Oc1ccccc1`, the inhibition of growth at 10 µM with MOLT-4 was 23%; with 786-0 it was 13%; in the assay on RXF 393, below 10%; in the assay on Malme-3M, 16%; in the assay with HL-60(TB), 11%; with CAKI-1, below 10%. For the same molecule, the inhibition of growth at 10 µM is below 10% in the assay on Hs-578T; 15% in the assay on MCF7; below 10% in the assay on SK-MEL-28; 23% with OVCAR-8; 13% with M14; 21% in the assay on HCT-116. In addition, the inhibition of growth at 10 µM was 15% in the assay with MDA-MB-231, below 10% with OVCAR-5 and 19% with UACC-62.
